According to US20100004234A1, “SPECIFIC KINASE INHIBITORS” (Kosan Biosciences Incorporated, priority 2004, published 2010):
Like-named read-outs stand apart in the source and are kept apart here.

Experiments:
PKCα(h) = PKCα(h) (Homo sapiens, UniProt P17252); experiment: Kinase panel, residual activity; format: biochemical; details: read-out: Percent residual activity
Experimental: (§1) In this panel of 124 kinases, 18 of the 19 kinases identified as having an active site cysteine were inhibited to some extent by hypothemycin at a concentration of 0.2 μM and/or 2 μM.

Fms(h) = Fms(h) (Homo sapiens, UniProt P07333); experiment: Kinase panel, residual activity; format: biochemical; details: read-out: Percent residual activity
Experimental: as §1

PKCθ(h) = PKCθ(h) (Homo sapiens, UniProt Q04759); experiment: Kinase panel, residual activity; format: biochemical; details: read-out: Percent residual activity
Experimental: as §1

EphA2(h) = EphA2(h) (Homo sapiens, UniProt P29317); experiment: Kinase panel, residual activity; format: biochemical; details: read-out: Percent residual activity
Experimental: as §1

cKit(h) = cKit(h) (Homo sapiens, UniProt P10721); experiment: Kinase panel, residual activity; format: biochemical; details: read-out: Percent residual activity
Experimental: as §1

CDK7/cyclinH/MAT1(h) = CDK7/cyclinH/MAT1(h) (Homo sapiens, UniProt P50613); experiment: Kinase panel, residual activity; format: biochemical; details: read-out: Percent residual activity
Experimental: as §1

MSK1(h) = MSK1(h) (Homo sapiens, UniProt O75582); experiment: Kinase panel, residual activity; format: biochemical; details: read-out: Percent residual activity
Experimental: as §1

PKBβ(h) = PKBβ(h) (Homo sapiens, UniProt P31751); experiment: Kinase panel, residual activity; format: biochemical; details: read-out: Percent residual activity
Experimental: as §1

NEK2(h) = NEK2(h) (Homo sapiens, UniProt P51955); experiment: Kinase panel, residual activity; format: biochemical; details: read-out: Percent residual activity
Experimental: as §1

c-RAF(h) = c-RAF(h) (Homo sapiens, UniProt P04049); experiment: Kinase panel, residual activity; format: biochemical; details: read-out: Percent residual activity
Experimental: as §1

Bmx(h) = Bmx(h) (Homo sapiens, UniProt P51813); experiment: Kinase panel, residual activity; format: biochemical; details: read-out: Percent residual activity
Experimental: as §1

PKBα(h) = PKBα(h) (Homo sapiens, UniProt P31749); experiment: Kinase panel, residual activity; format: biochemical; details: read-out: Percent residual activity
Experimental: as §1

ASK1(h) = ASK1(h) (Homo sapiens, UniProt Q99683); experiment: Kinase panel, residual activity; format: biochemical; details: read-out: Percent residual activity
Experimental: as §1

PAR-1Bα(h) = PAR-1Bα(h) (Homo sapiens, UniProt Q7KZI7); experiment: Kinase panel, residual activity; format: biochemical; details: read-out: Percent residual activity
Experimental: as §1

CDK6/cyclinD3(h) = CDK6/cyclinD3(h) (Homo sapiens, UniProt Q00534); experiment: Kinase panel, residual activity; format: biochemical; details: read-out: Percent residual activity
Experimental: as §1

MAPK1(h) = MAPK1(h) (Homo sapiens, UniProt P27361); experiment: Kinase panel, residual activity; format: biochemical; details: read-out: Percent residual activity
Experimental: as §1

ALK(h) = ALK(h) (Homo sapiens, UniProt Q9UM73); experiment: Kinase panel, residual activity; format: biochemical; details: read-out: Percent residual activity
Experimental: as §1

SAPK3(h) = SAPK3(h) (Homo sapiens, UniProt P53778); experiment: Kinase panel, residual activity; format: biochemical; details: read-out: Percent residual activity
Experimental: as §1

PKCε(h) = PKCε(h) (Homo sapiens, UniProt Q02156); experiment: Kinase panel, residual activity; format: biochemical; details: read-out: Percent residual activity
Experimental: as §1

[1] = test system: MV4-11 (Human leukemia Flt3-ITD); experiment: Cell proliferation assay (Cell Titer Glo); format: cell-based; details: Homo sapiens
Experimental: (§2) In one illustrative method, cells are treated with various concentrations of the inhibitor in 96 well plates, incubated at 37° C./5% CO2 for three days, and analyzed using the Cell Titer Glo kit (Promega).

[2] = test system: A375 (Human melanoma, B-Raf V599E); experiment: Cell proliferation assay (Cell Titer Glo); format: cell-based; details: Homo sapiens, A-375, read-out: Kinase Inhibitor IC50
Experimental: as §2

[3] = test system: P815 (Mouse mastocytoma, KIT D814Y); experiment: Cell proliferation assay (Cell Titer Glo); format: cell-based; details: Mus musculus
Experimental: as §2

[4] = test system: EOL-1 (Human leukemia FLP1L1-PDGFRA); experiment: Cell proliferation assay (Cell Titer Glo); format: cell-based; details: Homo sapiens, EOL1, read-out: Kinase Inhibitor IC50
Experimental: as §2

[5] = test system: A549 (NSCLC, B-Raf wild-type); experiment: Cell proliferation assay (Cell Titer Glo); format: cell-based; details: Homo sapiens, A549, read-out: Kinase Inhibitor IC50
Experimental: as §2

[6] = test system: DU4475 (Human breast, B-Raf V599E); experiment: Cell proliferation assay (Cell Titer Glo); format: cell-based; details: Homo sapiens, DU-4475, read-out: Kinase Inhibitor IC50
Experimental: as §2

[7] = test system: ASZ001 (Basal cell carcinoma); experiment: Cell proliferation assay (Cell Titer Glo); format: cell-based
Experimental: as §2

[8] = test system: WM266-4 (Human melanoma, B-Raf V599D); experiment: Cell proliferation assay (Cell Titer Glo); format: cell-based; details: Homo sapiens, WM 266-4, read-out: Kinase Inhibitor IC50
Experimental: as §2

A375 xenograft = experiment: B-Raf mutant melanoma (A375) xenograft model; format: in vivo
Excerpt: The sensitivity of B-Raf mutated cancer cell lines to RALs was confirmed in a B-Raf mutant melanoma (A375) xenograft model.

[9] = test system: phosphorylated FLT3, MEK and ERK in MV-4-11 (FLT3(ITD)); experiment: Phosphorylation state of kinases in MV-4-11 cells; format: cell-based; details: MV-4-11, FLT3(ITD) mutation
Experimental: The downstream effects of inhibition of a particular kinase (e.g. MEK) can be established by measuring the phosphorylation state of several proteins that require that kinase for phosphorylation (e.g. ERK1). Cultured cells are treated with hypothemycin or other lactone analogs described herein, and Western blots of cell extracts are probed with antibodies specific for the unmodified and phosphorylated forms of the downstream targets. As an example, the effects of hypothemycin on MEK1/2 can be determined by measuring the level of ERK1/2 phosphorylation.

Chain of Fms(h) (P07333 20-972): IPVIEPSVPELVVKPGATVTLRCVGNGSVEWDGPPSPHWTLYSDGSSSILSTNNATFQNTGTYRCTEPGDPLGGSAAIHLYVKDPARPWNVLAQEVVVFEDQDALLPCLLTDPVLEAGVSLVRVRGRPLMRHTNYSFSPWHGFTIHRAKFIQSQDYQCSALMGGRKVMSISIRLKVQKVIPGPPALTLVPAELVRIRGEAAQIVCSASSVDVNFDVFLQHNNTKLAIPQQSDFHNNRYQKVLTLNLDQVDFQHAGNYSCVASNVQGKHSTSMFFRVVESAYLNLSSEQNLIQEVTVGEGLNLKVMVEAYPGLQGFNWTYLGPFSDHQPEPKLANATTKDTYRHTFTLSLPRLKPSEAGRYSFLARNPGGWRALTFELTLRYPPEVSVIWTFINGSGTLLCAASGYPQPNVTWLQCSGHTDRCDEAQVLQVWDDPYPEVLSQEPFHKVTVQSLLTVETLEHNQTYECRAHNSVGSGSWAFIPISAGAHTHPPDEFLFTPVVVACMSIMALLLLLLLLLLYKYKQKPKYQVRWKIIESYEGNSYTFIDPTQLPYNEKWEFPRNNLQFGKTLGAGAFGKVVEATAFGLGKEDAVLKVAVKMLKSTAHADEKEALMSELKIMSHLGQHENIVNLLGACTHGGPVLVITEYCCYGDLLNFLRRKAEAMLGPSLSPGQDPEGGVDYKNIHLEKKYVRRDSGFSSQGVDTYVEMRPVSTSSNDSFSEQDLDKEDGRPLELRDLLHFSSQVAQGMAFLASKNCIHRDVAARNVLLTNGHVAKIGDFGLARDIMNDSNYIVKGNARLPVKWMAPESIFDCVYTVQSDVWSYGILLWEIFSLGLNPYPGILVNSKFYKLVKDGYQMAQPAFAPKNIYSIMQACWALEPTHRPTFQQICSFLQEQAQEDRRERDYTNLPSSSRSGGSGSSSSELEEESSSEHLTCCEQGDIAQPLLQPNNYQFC
Chain of cKit(h) (P10721 26-976): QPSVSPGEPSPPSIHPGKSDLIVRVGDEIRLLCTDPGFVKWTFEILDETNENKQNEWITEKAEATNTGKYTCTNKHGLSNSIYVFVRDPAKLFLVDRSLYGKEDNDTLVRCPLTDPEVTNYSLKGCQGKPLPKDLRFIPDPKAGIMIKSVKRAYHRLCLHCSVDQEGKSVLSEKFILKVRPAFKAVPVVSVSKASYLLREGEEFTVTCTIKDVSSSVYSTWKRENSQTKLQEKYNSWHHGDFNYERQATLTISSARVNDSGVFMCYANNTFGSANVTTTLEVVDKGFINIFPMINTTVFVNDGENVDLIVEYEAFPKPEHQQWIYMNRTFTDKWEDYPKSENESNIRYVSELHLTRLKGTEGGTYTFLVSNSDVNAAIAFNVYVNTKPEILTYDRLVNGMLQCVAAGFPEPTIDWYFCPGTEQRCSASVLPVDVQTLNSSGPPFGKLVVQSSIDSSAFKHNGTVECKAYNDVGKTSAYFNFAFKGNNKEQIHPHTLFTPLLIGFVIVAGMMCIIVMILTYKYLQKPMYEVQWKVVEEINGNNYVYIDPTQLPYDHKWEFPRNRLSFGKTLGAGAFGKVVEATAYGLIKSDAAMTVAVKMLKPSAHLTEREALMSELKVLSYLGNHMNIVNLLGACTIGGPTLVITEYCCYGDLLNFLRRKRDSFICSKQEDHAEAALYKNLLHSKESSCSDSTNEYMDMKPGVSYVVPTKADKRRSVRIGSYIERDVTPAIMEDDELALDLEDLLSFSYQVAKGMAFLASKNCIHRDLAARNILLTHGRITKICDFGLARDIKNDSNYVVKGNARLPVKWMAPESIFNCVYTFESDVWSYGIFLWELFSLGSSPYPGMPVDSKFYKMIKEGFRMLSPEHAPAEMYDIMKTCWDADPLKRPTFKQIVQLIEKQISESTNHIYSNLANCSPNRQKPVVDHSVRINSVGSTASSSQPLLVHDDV
Chain of MAPK1(h) (P27361 whole entry): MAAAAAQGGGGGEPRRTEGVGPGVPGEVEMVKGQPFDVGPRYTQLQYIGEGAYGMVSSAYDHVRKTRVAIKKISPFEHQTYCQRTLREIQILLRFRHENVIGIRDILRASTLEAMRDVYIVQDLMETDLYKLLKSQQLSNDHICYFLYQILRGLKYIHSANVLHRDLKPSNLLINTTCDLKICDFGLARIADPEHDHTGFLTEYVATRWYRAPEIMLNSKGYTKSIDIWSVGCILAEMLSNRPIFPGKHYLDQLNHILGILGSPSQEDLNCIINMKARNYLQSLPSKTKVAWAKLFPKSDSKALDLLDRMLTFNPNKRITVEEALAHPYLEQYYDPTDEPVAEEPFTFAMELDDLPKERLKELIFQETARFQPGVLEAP
Chain of c-RAF(h) (P04049 whole entry): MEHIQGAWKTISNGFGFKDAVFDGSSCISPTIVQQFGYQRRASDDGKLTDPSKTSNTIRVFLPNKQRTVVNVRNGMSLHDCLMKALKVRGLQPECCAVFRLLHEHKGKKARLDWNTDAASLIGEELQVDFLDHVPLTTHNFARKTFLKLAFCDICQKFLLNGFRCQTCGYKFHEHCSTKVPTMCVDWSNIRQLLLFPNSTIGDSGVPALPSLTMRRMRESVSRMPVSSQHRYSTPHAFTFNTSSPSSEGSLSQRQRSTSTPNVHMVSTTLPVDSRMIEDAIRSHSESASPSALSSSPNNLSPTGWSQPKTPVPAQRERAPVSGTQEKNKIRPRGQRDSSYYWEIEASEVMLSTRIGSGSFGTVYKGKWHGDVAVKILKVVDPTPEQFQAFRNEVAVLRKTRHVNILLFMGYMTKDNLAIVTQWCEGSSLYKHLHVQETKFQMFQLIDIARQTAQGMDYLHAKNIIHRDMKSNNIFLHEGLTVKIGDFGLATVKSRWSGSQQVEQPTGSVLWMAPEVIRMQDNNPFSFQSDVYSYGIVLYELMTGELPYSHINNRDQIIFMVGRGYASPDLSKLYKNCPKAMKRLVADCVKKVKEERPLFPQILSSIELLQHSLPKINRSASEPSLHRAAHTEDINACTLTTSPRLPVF
Chain of PKBβ(h) (P31751 whole entry): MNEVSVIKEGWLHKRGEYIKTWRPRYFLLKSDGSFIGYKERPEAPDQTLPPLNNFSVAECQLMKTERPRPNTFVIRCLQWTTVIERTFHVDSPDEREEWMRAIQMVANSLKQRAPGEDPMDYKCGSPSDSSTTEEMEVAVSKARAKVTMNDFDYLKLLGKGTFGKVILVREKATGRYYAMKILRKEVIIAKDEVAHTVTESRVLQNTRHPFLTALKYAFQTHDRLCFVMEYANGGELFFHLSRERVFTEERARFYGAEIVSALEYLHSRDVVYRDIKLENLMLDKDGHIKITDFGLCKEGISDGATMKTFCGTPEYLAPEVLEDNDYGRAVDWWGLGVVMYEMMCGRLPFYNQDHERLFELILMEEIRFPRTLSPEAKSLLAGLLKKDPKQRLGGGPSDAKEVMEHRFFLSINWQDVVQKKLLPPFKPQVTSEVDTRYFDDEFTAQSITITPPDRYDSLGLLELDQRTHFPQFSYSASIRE
Chain of NEK2(h) (P51955 whole entry): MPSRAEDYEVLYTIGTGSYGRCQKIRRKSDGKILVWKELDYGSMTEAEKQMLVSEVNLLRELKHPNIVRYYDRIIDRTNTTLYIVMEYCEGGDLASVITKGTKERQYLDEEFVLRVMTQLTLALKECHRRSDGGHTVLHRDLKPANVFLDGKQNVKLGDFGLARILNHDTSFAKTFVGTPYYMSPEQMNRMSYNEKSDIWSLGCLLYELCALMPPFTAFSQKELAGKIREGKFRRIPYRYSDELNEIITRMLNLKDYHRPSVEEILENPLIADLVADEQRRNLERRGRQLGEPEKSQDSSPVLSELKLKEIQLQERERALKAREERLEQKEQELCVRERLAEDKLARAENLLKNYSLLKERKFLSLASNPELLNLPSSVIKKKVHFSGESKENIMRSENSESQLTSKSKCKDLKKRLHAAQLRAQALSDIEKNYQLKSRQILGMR
Chain of SAPK3(h) (P53778 whole entry): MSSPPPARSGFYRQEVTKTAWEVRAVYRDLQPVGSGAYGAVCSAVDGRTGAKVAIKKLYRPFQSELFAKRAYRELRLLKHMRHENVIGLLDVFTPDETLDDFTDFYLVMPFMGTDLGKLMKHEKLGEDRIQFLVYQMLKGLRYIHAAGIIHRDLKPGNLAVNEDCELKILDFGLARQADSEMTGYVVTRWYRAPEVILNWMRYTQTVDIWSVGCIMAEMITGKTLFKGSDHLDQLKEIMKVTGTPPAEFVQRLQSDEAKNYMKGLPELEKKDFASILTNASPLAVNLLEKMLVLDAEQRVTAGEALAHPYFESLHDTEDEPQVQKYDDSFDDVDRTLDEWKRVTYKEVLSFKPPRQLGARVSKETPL
Chain of PKCθ(h) (Q04759 whole entry): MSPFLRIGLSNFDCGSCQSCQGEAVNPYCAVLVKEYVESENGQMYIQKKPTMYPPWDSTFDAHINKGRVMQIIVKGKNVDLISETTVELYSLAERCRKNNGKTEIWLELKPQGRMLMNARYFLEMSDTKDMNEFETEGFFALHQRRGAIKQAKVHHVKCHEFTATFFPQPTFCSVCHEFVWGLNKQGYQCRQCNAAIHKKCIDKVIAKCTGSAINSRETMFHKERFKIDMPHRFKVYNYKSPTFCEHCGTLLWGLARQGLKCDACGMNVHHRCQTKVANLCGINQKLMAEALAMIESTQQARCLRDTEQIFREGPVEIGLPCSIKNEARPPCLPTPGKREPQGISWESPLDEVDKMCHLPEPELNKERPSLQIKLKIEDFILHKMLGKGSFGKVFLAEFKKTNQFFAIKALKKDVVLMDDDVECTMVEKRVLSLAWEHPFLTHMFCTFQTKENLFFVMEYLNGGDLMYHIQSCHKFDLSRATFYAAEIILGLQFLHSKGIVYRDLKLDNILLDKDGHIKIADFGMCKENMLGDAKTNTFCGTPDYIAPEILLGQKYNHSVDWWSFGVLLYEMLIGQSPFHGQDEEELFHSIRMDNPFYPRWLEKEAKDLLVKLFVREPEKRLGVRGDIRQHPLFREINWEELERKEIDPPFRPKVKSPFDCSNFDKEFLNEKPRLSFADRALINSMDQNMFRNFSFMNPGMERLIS

COc1cc(O)c2c(c1)[C@H]1O[C@@H]1C[C@H](O)[C@H](O)C(=O)/C=C\C[C@H](C)OC2=O [Hypothemycin, hypothemycin]
remaining activity at 0.2 µM (PKCα(h)): 96%
remaining activity at 0.2 µM (Fms(h); 0.2 μM): 91%
remaining activity at 2 µM (Fms(h); 2.0 μM): 90%
remaining activity at 0.2 µM (PKCθ(h)): 104%
remaining activity at 0.2 µM (EphA2(h)): 87%
remaining activity at 0.2 µM (cKit(h); 0.2 μM): 93%
remaining activity at 2 µM (cKit(h); 2.0 μM): 21%
remaining activity at 0.2 µM (CDK7/cyclinH/MAT1(h)): 101%
remaining activity at 0.2 µM (MSK1(h)): 87%
remaining activity at 0.2 µM (PKBβ(h)): 91%
remaining activity at 0.2 µM (NEK2(h)): 99%
remaining activity at 0.2 µM (c-RAF(h)): 103%
remaining activity at 0.2 µM (Bmx(h)): 99%
remaining activity at 0.2 µM (PKBα(h)): 153%
remaining activity at 0.2 µM (ASK1(h)): 100%
remaining activity at 0.2 µM (PAR-1Bα(h)): 93%
remaining activity at 0.2 µM (CDK6/cyclinD3(h)): 95%
remaining activity at 0.2 µM (MAPK1(h); 0.2 μM): 79%
remaining activity at 2 µM (MAPK1(h); 2.0 μM): 10%
remaining activity at 0.2 µM (ALK(h)): 101%
remaining activity at 0.2 µM (SAPK3(h)): 104%
remaining activity at 0.2 µM (PKCε(h)): 106%
GI50 ([1]; MV4-11): 6 nM
IC50 ([1]; MV4-11, read-out: Kinase Inhibitor IC50): 5.5 nM
IC50 [2]: 180 nM
GI50 ([3]; P815): 310 nM
IC50 ([3]; P815, read-out: Kinase Inhibitor IC50): 310 nM
IC50 [4]: 0.41 nM
IC50 [5]: 6000 nM
IC50 [6]: 18 nM
IC50 ([7]; ASZ001 (Basal cell carcinoma), read-out: Kinase Inhibitor IC50): 100 nM
IC50 ([7]; BCC cell line ASZ001 in culture, read-out: IC50): ~100 nM
IC50 [8]: 40 nM
growth of the A375 xenograft relative to vehicle alone (A375 xenograft; administered daily at 15 mg/kg or 20 mg/kg, FIG. 6): significantly inhibits the growth
A375 xenograft growth inhibition compared with Bayer 43-9006 (A375 xenograft; hypothemycin at both dosages vs Bayer 43-9006 25 mg/kg or 50 mg/kg every other day): significantly better
phosphorylated forms of FLT3, MEK and ERK [9]: loss of phosphorylated forms
